Common to all, as to assay: DTP human tumour cell line panel, 48 h
The subject of test [1] is HL-60(TB) leukemia.
The test system of test [2] is NCI-H460 lung.
Test [3] has as its system SF-268 CNS.
Test [4] concerns HCT-116 colon.
For test [5], the system named is CCRF-CEM leukemia.
Test [6] concerns SNB-75 CNS.
Test [7] has as its system K-562 leukemia.
Test [8] relates to HT29 colon.
Test [9] relates to HOP-62 NSCLC.
For test [10], the system named is HS 578T breast.

Molecules are shown by their SMILES. Where “and” joins values, the source holds several entries; their conditions need not be identical. Equal entries are not always repeated.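 Tested at 5 concentrations; 48 h exposure; 96-well plates; endpoints linearly interpolated, else capped at highest concentration. GI50 marks 50% less growth. Definition used: TGI = concentration required for complete inhibition of growth.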

As usually defined, the TGI is the concentration giving total growth inhibition. Low readings indicate more potent growth arrest, high ones less potent growth arrest. In general, GI50 refers to the concentration giving 50% growth inhibition. On to `CC(=O)OCC1OC(n2c(=S)n(-c3ccccc3)c(=O)c3cc(Br)cc(Br)c32)C(OC(C)=O)C(OC(C)=O)C1OC(C)=O` (configuration not stated), for which the TGI is over 100 µM in test [1]; over 100 µM in test [2]; over 100 µM in test [3]; over 100 µM in test [4]; over 100 µM in test [5]; 92.5 µM and > 100 µM in test [6]. Further, the TGI in [7] is over 100 µM; in test [8], over 100 µM; in test [9] it was 54.8 µM and > 100 µM. For the same compound, the GI50 in [3] is 35.2 µM and 94.8 µM; in test [9], 19.5 µM and > 100 µM.
As for `O=C(/C=C(\[O-])c1ccccc1)CCCCCCC(=O)/C=C(\[O-])c1ccccc1.O=C(/C=C(\[O-])c1ccccc1)CCCCCCC(=O)/C=C(\[O-])c1ccccc1.O=C(/C=C(\[O-])c1ccccc1)CCCCCCC(=O)/C=C(\[O-])c1ccccc1.[Nd+3].[Nd+3]`, the GI50 in test [1] was 3.05 µM; in test [2], over 50 µM; in [3], over 50 µM; in test [4], over 50 µM; in [6], 3.3 µM; in test [7], over 50 µM. Also, the GI50 in [8] and in [9] was over 50 µM throughout. In addition, the TGI in test [1], in test [2], in test [3], in [4], in [6] and in test [7] was over 50 µM in each case. Also, the TGI in test [8] and in test [9] was over 50 µM in each case.
In the case of `Nc1nc(=S)[nH]c(C(=O)Nc2nccs2)c1-c1ccccc1`, the TGI in test [1], in test [2], in test [3], in test [4], in [5] and in [6] was over 100 µM in each case. The TGI in test [7], in test [8] and in [9] was over 100 µM each time.
Turning to `CN(C)c1ccc(O[Si](Oc2ccc(N(C)C)cc2)(Oc2ccc(N(C)C)cc2)Oc2ccc(N(C)C)cc2)cc1`, the TGI in test [1], in [3], in test [4], in test [5], in test [6] and in test [7] was over 100 µM in each case. For the same compound, the TGI in test [8] and in test [9] was over 100 µM each time.
With `N#CCCN(CCC#N)c1ccc(C=Nc2ccc(F)cc2)cc1`, the TGI in [1], in test [2], in test [3], in test [4], in [5] and in test [6] was over 100 µM each time. For the same compound, the TGI in test [7], in [8] and in test [9] was over 100 µM throughout.
Turning to `c1cncc(C2ONC3=NCCN32)c1` (configuration not stated), the GI50 in test [2] was 31 µM; in test [3], 21.7 µM; in [4] it was 34.6 µM; in [5], 21 µM; in test [6] it was 22.4 µM; in test [7], 35.6 µM. Moreover, the GI50 in [8] is 35.1 µM; in test [9], 30 µM. The TGI in test [2] is over 100 µM; in test [3] it was over 100 µM; in test [4], over 100 µM; in test [5], 56.6 µM; in test [6] it was 98.1 µM; in test [7] it was over 100 µM. In addition, the TGI was over 100 µM in [8] and 91.1 µM in test [9].
As to `COC(=O)c1sc(=NC(=S)N2CCCCC2)sc1C(=O)OC`, the TGI in test [1], in test [2], in [3], in [4], in test [5] and in test [6] was over 100 µM each time. Moreover, the TGI in [7] and in test [9] was over 100 µM in each case.
Take `NNC(=O)N/N=C1\CN(c2ccc(Cl)cc2Cl)C(=O)C(=O)C1c1nc2ccccc2o1` (configuration not stated): the TGI in [2], in test [3], in test [4], in [5], in test [6] and in test [7] was over 100 µM in each case. Besides, the TGI in test [8] and in test [9] was over 100 µM in each case.
Consider `COc1ccc(C(=O)O/N=C2/CCCCC2CN(C)C)cc1` (configuration not stated), for which the TGI in test [1], in [2], in test [4], in test [5], in test [6] and in test [7] was over 100 µM throughout. Further, the TGI in test [8] and in [9] was over 100 µM each time.
As to `CC1CC(C)C(C(O)CC2CC(=O)N(c3ccccc3)C(=O)C2)C(O)C1` (configuration not stated), the TGI in test [1], in test [2], in [3], in test [4], in [5] and in [6] was over 100 µM throughout. In addition, the TGI in test [7], in [8] and in test [9] was over 100 µM in each case.
For `O=C(CC1=Nc2nnc(-c3nnc4n3C(=O)C(CC(=O)C3CC3)=N4)n2C1=O)C1CC1`, the TGI in [1], in test [2], in [3], in test [4], in [5] and in test [6] was over 100 µM throughout. The TGI in test [7], in test [8] and in test [9] was over 100 µM in each case.
Take `CCCCC[C@@H](C/C=C/CCC(=O)NC/C(=C/Cl)[C@H]1C(=O)C(C)(C)C(=O)[C@@H](C)[C@@]1(C)O)OC`: the GI50 in test [1] was 19.1 µM; in [2] it was 17.7 µM; in [3], 17.6 µM; in test [4], 14 µM; in [5] it was 3.27 µM; in test [6] it was 20.5 µM. Moreover, the GI50 in test [7] was 21.8 µM; in test [8], 14.5 µM. Also, the TGI in [1] was found to be 40.6 µM; in [2], 35.1 µM; in test [3], 34.6 µM; in [4], 27.4 µM; in [5], 15.7 µM; in [6], 44.7 µM. Also, the TGI in test [7] stood at 48.5 µM; in [8] it was 30.9 µM.
As for `COc1cc2cc3c(c(O)c2c(O)c1-c1c(OC)cc2cc4c(c(O)c2c1O)C(=O)O[C@H](C)C4)C(=O)O[C@H](C)C3`, the GI50 in test [1] is 95.9 µM; in test [2], 16.8 µM; in [3] it was 14.1 µM; in [4], 20.3 µM; in test [5] it was 25.3 µM; in [7], over 100 µM. Further, the GI50 in [8] was 37.5 µM; in test [9], 26.9 µM. Moreover, the TGI is over 100 µM in [1]; 56.8 µM in test [2]; 37.9 µM in [3]; 43 µM in test [4]; 67.7 µM in [5]; over 100 µM in test [7]. For the same compound, the TGI in test [8] was over 100 µM; in test [9] it was 62.7 µM.
As for `c1ccc2c3c([nH]c2c1)C1C2CCCCN2C(c2ccncc2)N1CC3` (configuration not stated), the TGI was 52.5 µM in [1]; over 100 µM in test [2]; over 100 µM in test [4]; over 100 µM in test [5]; 89 µM in [6]; over 100 µM in test [7]. Moreover, the TGI in test [8] and in test [9] was over 100 µM throughout.
For the compound `OCC(O)C(O)C(O)C(O)c1nn[nH]n1` (configuration not stated), the TGI is over 100 µM in test [1]; over 100 µM in [2]; over 100 µM in test [3]; over 100 µM in test [4]; over 100 µM in test [5]; 88.1 µM and > 100 µM in [6]. Besides, the TGI in [7], in test [8] and in test [9] was over 100 µM each time.
As for `Nc1ccc(C(=O)/C=C/c2ccccc2O)cc1`, the TGI in test [1], in test [2], in test [3], in [4], in [5] and in test [6] was over 100 µM throughout. For the same compound, the TGI in [7], in test [8] and in test [9] was over 100 µM in each case.
On to `O=C(C(=O)c1cc(Br)ccc1O)c1cc(Br)ccc1O`, for which the GI50 was 2.2 µM in test [1]; 3.41 µM in test [3]; 3.38 µM in [4]; 5.5 µM in test [5]; 3.26 µM in test [6]; 2.82 µM in [7]. For the same compound, the GI50 was 14.6 µM in [8] and 6.51 µM in test [9]. For the same compound, the TGI in [1] is 6.16 µM; in test [3], 21.1 µM; in [4], 12.7 µM; in test [5], over 100 µM; in [6] it was 29.4 µM; in test [7], over 100 µM. The TGI was over 100 µM in [8] and 34.9 µM in [9].
Consider `COCC1N=C(c2cc(OC)c(OC)c(OC)c2-c2cc3c(cc2[C@H](C)O)OCO3)O[C@H]1c1ccccc1` (some centres not stated), for which the TGI was over 10 µM in [1]; over 100 µM in test [4]; over 10 µM in test [5]; over 100 µM in test [6]; over 10 µM in test [7]; over 100 µM in test [8].
For the compound `O=C(c1ccccc1)C(Br)C(Br)c1ccccc1` (configuration not stated), the GI50 was 13.8 µM in test [2], 9.37 µM in test [3], 1.73 µM in [4] and 12.1 µM in [6]. The TGI in test [2] is 29.5 µM; in test [3], 24.8 µM; in [4] it was 3.32 µM; in test [6] it was 25.6 µM.
With `[Cl-].[Gd+3].[O-]/N=C(\c1ccccc1)c1ccccn1.[O-]/N=C(\c1ccccc1)c1ccccn1.[O-]/N=C(\c1ccccc1)c1ccccn1`, the GI50 was 11.7 µM in [1]; 50.7 µM in [2]; 55.6 µM in test [3]; 49.3 µM in test [4]; 34.3 µM in test [5]; 17.5 µM in [6]. For the same compound, the GI50 in test [7] is 65 µM; in [8] it was 44.9 µM; in test [9] it was 41.8 µM. Further, the TGI in test [1] is over 100 µM; in test [2] it was over 100 µM; in test [3], over 100 µM; in [4] it was over 100 µM; in test [5] it was over 100 µM; in test [6] it was 71.9 µM. Also, the TGI in test [7], in test [8] and in test [9] was over 100 µM throughout.
`CN(C)c1ccc(N=C2C=CC(=C(C#N)C#N)c3ccccc32)cc1`: the TGI is 0.391 µM in test [1]; 7.08 µM in test [2]; 8.1 µM in [3]; 5.26 µM in [4]; 3.46 µM in test [5]; 5.71 µM in test [6]. For the same compound, the TGI in test [7] was found to be 5.71 µM; in test [8] it was 10.4 µM; in test [9] it was 15.3 µM.
Consider `Oc1ccccc1C=Nc1nc(OCc2ccccc2)nc2[nH]ncc12`, for which the GI50 in test [2] was 24.4 µM; in [3], 20.1 µM; in test [4] it was 18.4 µM; in test [7] it was 30.3 µM; in test [8], 22.5 µM; in [9] it was 26.2 µM. Moreover, the GI50 in test [10] was 19.2 µM. Moreover, the concentration for total growth inhibition (TGI) in test [2] was over 100 µM; in test [3], 77.5 µM; in [4], 41.9 µM; in [7], over 100 µM; in test [8], 49.3 µM; in [9], 84.8 µM. The compound also showed a TGI in [10] of 56.9 µM.
`CCCCCCCCCCCCCCC(C)CCC(=O)O` (configuration not stated): the TGI in test [2], in test [3], in [4], in [6], in test [8] and in [9] was over 100 µM each time.
Take `CC(=O)[O-].[Mn+3].[O-]c1ccc(Cl)cc1C=NCCN=Cc1cc(Cl)ccc1[O-]`: the GI50 is 50.7 µM in test [1]; over 100 µM in test [2]; over 100 µM in [3]; over 100 µM in test [4]; 22.2 µM in test [5]; over 100 µM in test [6]. The GI50 in [7] and in [8] was over 100 µM in each case. Moreover, the TGI in test [1], in [2], in test [3], in test [4], in test [5] and in [6] was over 100 µM in each case. In addition, the TGI in test [7] and in [8] was over 100 µM each time.
